Measurements taken from patent publication US20240374581A1, “SALT TYPES OF TRICYCLIC TETRAHYDRO ISOQUINOLINE DERIVATIVE” (JIANGSU HENGRUI PHARMACEUTICALS CO., LTD., priority 2021, published 2024).

Tests used:
ER (estrogen receptor) = ER (estrogen receptor) (Homo sapiens (Human), UniProt P03372); assay: Inhibition of binding of E to ER (MCF-7/ERE-luciferase reporter); assay type: cell-based; details: MCF-7/ERE-luciferase cells, 0.1 nM estradiol, 24 h; read-out: IC50, inhibitory effect on the binding of E to ER
Experimental: The compound of the present disclosure can inhibit the binding of E (estrogen) to ER (estrogen receptor), thereby blocking the binding of the complex of E and ER to ERE (estrogen response element), and consequently the expression of downstream luciferase proteins. The inhibitory effect of the compound of the present disclosure on the binding of E to ER was tested by using the following method.
An ERE was cloned upstream of the luciferase gene, and MCF-7/ERE-luciferase monoclonal cells were selected by transfection of MCF-7 (TCHu74, National Collection of Authenticated Cell Cultures). The MCF-7/ERE-luciferase cells were seeded into a 96-well plate with an MEM (hyclone, SH30024.01B) medium containing 10% charcoal stripped FBS (Moregate, FBSF), 1% sodium pyruvate (sigma, S8636), 1% non-essential amino acids (sigma, M7145) and 500 μg/mL G418 at a density of 30,000 cells/well and cultured at 37° C. with 5% CO2. […] The plate was let stand at room temperature in the dark for 10-15 min, and the chemiluminescence signal value was determined.
The inhibitory effect of the compound of the present disclosure on the binding of E to ER was determined through the above experiment. The chemiluminescence signal value was analyzed against the compound concentration (in log form) using Graphpad Prism, and the IC50 value of the compound was obtained.

CYP3A4 = CYP3A4 (Homo sapiens (Human), UniProt P08684); assay: Inhibition of site of metabolism of testosterone in human liver microsome CYP3A4; assay type: in vitro ADME; details: 30 min
Experimental: • 1. Phosphate buffer (20×PBS, purchased from Sangon); • 2. NADPH (ACROS, A2646-71-1); • 3. Human liver microsome (Corning Gentest, Cat No. 452161, Lot No. 905002, Donor36); • 4. ABI QTrap 4000 LC-MS System (AB Sciex); • 5. ZORBAX Extend-C18, 3×50 mm, 3.5 m (Agilent, USA); • 6. CYP probe substrate (testosterone, Vocko, CAS No. [58-22-0]/75 μM) and positive control inhibitor (ketoconazole, SIGMA, Cat No. K1003-100MG).
A 100 mM PBS buffer was prepared. A 0.25 mg/mL microsome solution, a 7.5 mM MgCl2 and a 5 mM NADPH solution were prepared using the buffer. A30 mM stock solution was diluted with DMSO to obtain 30 mM, 10 mM, 3 mM, 1 mM, 0.3 mM, 0.03 mM, 0.003 mM and 0 mM serial solutions I, which were further diluted 200-fold with phosphate buffer (PBS) to obtain serial test solutions II (150, 50, 15, 5, 1.5, 0.15, 0.015 and 0 μM). A testosterone working solution was diluted with PBS to 375 μM. 40 μL of a 0.25 mg/mL microsome solution prepared in 7.5 mM MgCl2 and 20 μL of each of the 375 μM testosterone working solution and the compound working solutions (150, 50, 15, 5, 1.5, 0.15, 0.015 and 0 μM) were measured out and well mixed. […]
The IC50 value of the drug for the site of metabolism of testosterone in CYP3A4 was calculated by Graphpad Prism and is shown in Table 6.

[1] = Hygroscopicity study (DVS); assay type: physicochemical; details: 25° C.
Experimental: DVS refers to dynamic vapor sorption: The measurement was conducted on SMS DVS Advantage; at 25° C., the humidity was changed as follows: 50%-95%-0%-95%-50%, in steps of 10% (5% for the last step) (specific humidity ranges are shown in corresponding patterns, and those listed here were used in most cases); the criterion was dm/dt≤0.002%.
The measurement was conducted with a Surface Measurement Systems intrinsic at 25° C., starting from 50% humidity in humidity range of 0%-95%, in steps of 10%; the criterion was dM/dT≤0.002% and TMAX of 360 min in two cycles.

[2] = Long-term/accelerated stability; assay type: physicochemical; details: for Crystal form: up to 3 months

Sequence of ER (estrogen receptor) (P03372 whole entry): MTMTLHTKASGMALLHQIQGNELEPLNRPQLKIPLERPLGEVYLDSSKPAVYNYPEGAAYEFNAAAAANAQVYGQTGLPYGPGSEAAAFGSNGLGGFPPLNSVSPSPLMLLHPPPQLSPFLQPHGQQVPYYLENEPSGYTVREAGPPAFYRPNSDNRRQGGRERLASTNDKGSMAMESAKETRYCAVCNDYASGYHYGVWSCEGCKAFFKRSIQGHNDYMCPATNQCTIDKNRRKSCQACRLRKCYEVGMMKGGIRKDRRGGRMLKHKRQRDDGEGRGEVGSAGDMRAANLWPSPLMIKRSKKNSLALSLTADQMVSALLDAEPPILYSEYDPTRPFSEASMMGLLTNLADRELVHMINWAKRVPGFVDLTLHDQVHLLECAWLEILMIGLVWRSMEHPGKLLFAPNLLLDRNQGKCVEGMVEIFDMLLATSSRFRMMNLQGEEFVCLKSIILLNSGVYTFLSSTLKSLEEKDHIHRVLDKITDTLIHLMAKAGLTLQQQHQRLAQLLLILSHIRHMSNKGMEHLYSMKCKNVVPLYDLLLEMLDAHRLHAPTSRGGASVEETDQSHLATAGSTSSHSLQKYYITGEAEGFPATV
Sequence of CYP3A4 (P08684 whole entry): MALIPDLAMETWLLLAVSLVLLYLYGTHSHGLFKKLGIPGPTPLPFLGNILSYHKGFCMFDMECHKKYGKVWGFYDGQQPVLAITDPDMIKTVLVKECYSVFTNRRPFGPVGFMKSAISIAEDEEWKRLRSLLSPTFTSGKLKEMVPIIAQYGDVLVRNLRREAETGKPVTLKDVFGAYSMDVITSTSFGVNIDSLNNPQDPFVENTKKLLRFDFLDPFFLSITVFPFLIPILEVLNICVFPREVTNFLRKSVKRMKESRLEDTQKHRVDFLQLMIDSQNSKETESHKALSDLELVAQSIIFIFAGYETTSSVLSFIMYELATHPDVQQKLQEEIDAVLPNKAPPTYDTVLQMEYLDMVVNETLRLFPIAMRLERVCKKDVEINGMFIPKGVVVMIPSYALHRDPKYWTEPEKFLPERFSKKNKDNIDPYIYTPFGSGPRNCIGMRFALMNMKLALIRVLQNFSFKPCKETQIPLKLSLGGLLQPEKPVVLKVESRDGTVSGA

With `[2H]C1([2H])Oc2cc3c(cc2O1)[C@@H](c1ccc(NC2CN(CCCF)C2)cn1)N(CC(F)(F)CO)[C@H](C)C3` [Compound 1, 2,2-Difluoro-3-((5S,7R)-5-(5-((1-(3-fluoropropyl)azetidin-3-yl)amino)pyridin-2-yl)-7-methyl-7,8-dihydro-[1,3]dioxolo[4,5-g]isoquinolin-6(5H)-yl-2,2-d2)propan-1-ol] the IC50 (ER (estrogen receptor)) was 0.69 nM, the IC50 (CYP3A4) was greater than 30000 nM and the Hygroscopicity grade ([1]; 0% RH-80.0% RH) was “hygroscopic”. The “Crystal form after DVS” value [1] was “Did not change”, the “Hygroscopicity 0% RH-80.0% RH” value ([1]; DVS) was 4.6% and the “Hygroscopicity 0.0% RH-95.0% RH” value ([1]; DVS) was 6.7%. The “Purity (%) 1 month” value ([2]; 25° C./60% RH) was 97.1%, the “Purity (%) 2 months” value ([2]; 25° C./60% RH) was 96.7% and the “Purity (%) 3 months” value ([2]; 25° C./60% RH) was 96.7%. The “Purity (%) 7 days” value ([2]; 25° C./60% RH) was 97.1%, the “Purity (%) 14 days” value ([2]; 25° C./60% RH) was 97.0% and the “Purity (%) Initial” value ([2]; 25° C./60% RH) was 97.1%. The Crystal form ([2]; 25° C./60% RH) was “Unchanged”, the “Purity (%) 1 month” value ([2]; 40° C./75% RH) was 96.5% and the “Purity (%) 2 months” value ([2]; 40° C./75% RH) was 95.5%. For the same compound, the “Purity (%) 3 months” value ([2]; 40° C./75% RH) was 94.9%, the “Purity (%) 7 days” value ([2]; 40° C./75% RH) was 96.8% and the “Purity (%) 14 days” value ([2]; 40° C./75% RH) was 96.6%. The “Purity (%) Initial” value ([2]; 40° C./75% RH) was 97.1% and the Crystal form ([2]; 40° C./75% RH) was “Unchanged”.
